Consider five molecules from US20170128467A1, “ANTIMICROBIAL PHARMACEUTICAL COMPOSITIONS WITH MULTIPLE DRUG RESISTANCE INHIBITING PROPERTIES” (priority 2014, published 2017).

Structures are written as SMILES.

For assay [1], the system named is Bacillus subtilis cells. Kind of assay: Growth inhibition assay in liquid medium, B. subtilis. The class given is cell-based. Conditions: for antimicrobial activity (growth inhibition): gram-positive. On the procedure: (§1) Growing in the liquid medium method was selected as the method to test antibacterial activity of SkQ1. Overnight bacterial cells cultures were diluted in fresh LB media. Bacterial cell culture (5×10^6 cells/ml) were inoculated 200 μl into 96-well plates (Eppendorf, Eppendorf AG, Hamburg, Germany) and SkQ1 or CnTPP were added to reach various final concentrations in the range from 0.5 to 200 μM. Cells were left to grow for 21 hours at 37° C. Optical density at 600 nm was measured using an AnthosZenyth 3100 multimode reader (Anthos Labtec, Austria) during incubation.
(§2) We selected Ecsherishia coli cells as a Gram-negative model organism and Bacillus subtilis cells as a Gram-positive model organism. SkQ1 was selected as a model compound of formula 1 with antioxidant moiety. To select a proper concentration of a compound of formula 1 we performed growth inhibition assays for several SkQ1 concentrations (see FIGS. 8 A and B). It can be concluded from the results of this experiment that 1 μM SkQ1 is the minimal inhibitory concentration (MIC) for B. subtilis cells.

Assay [2] relates to ΔTolC (JW5503). Kind of assay: Growth inhibition assay, TolC deletion mutant. Type of assay: cell-based, Escherichia coli K-12. Conditions: for IMPOSSIBILITY OF GROWTH: ΔTolC. On the procedure: as §1
(§3) In this experiment we have tested whether To1C-dependent transporter is responsible for resistance of E. coli's cells to SkQ1. In the experiment we used single-gene knockout mutants from Keio collection [Baba T., et al., (2006)]. Construction of Escherichia coli K-12 in-frame, single-gene knockout mutants: the Keio collection. Mol. Syst. Biol. 2, 2006.0008.]. […] We used other knockout mutants of genes encoding proteins of transporters that require To1C for their function. […] In contrast, deletion of genes acrA or acrB dramatically changed the sensitivity of E. coli's cells to SkQ1.
Table 1. Results of growth inhibition assay for deletion mutants of genes encoding To1C-required efflux pumps proteins. Deletion strains JW5503 (devoid of the to1C gene), JW0452 (devoid of the acrA gene), JW0451 (devoid of the acrB gene), JW2454 (devoid of the acrD gene), JW3233 (devoid of the acrE gene), JW3234 (devoid of the acrF gene), JW5338 (devoid of the mdtA gene), JW2060 (devoid of the mdtB gene), JW2061 (devoid of the mdtC gene), JW3481 (devoid of the mdtE gene), and JW3482 (devoid of the mdtF gene) have been described in Baba T., et al., (2006). Construction of Escherichia coli K-12 in-frame, single-gene knockout mutants: the Keio collection. Mol. Syst. Biol. 2, 2006.0008.

Assay [3] relates to ΔAcrB (JW0451). Kind of assay: Growth inhibition assay, AcrB deletion mutant. The class given is cell-based, Escherichia coli K-12. As for the experimental part:
as §1, §3
(§4) Table 1. Results of growth inhibition assay for deletion mutants of genes encoding To1C-required efflux pumps proteins. […]

The test system of assay [4] is ΔAcrA (JW0452). Kind of assay: Growth inhibition assay, AcrA deletion mutant. Type of assay: cell-based, Escherichia coli K-12. As for the experimental part: as §1, §3, §4
Assay [5] has as its system E. coli. Kind of assay: Growth inhibition assay in liquid medium, E. coli. Type of assay: cell-based, Escherichia coli. On the procedure:
as §1, §2

Assay [6] addresses T1, MDR pumps (Pdr5p) of yeast cells (Saccharomyces cerevisiae, UniProt P33302).
T1 construct: We measured the efflux of R6G from intact yeast cells using fluorometric method; endogenous in cells; host or cells: S. cerevisiae W303-1A (WT); AD1-8 as MDR-negative control
Type of assay: cell-based. Particulars: 2 μM compound. On the procedure: The ordinate corresponds to the ratio of slopes in a and b.
To measure the relative rate of rhodamine 6G efflux we used fluorometric assay implemented by Kolaczkowsky et al., with few modifications. Cells were grown overnight in 40 ml in liquid YPD to density of 0.5-1*10^7 cells/ml, washed twice with cold sterile water and resuspended in 10 ml phosphate buffer saline supplemented with 5 mM 2-deoxyglucose and 2.5 mM 2,4-dinitrophenol. Cell suspension was incubated for 45 minutes on a rotatory shaker, then the inhibitors were removed by two cycles of centrifugation/resuspension in cold water. The energy deprived cells were resuspended in 10 ml of PBS and then stained with R6G (10 μM) for 30 minutes. Then cell suspension was pelleted, resuspended in equal volume of PBS and stored on ice for 1-5 hours. The measurements of efflux were performed with FluoroMax-3 fluorometer system with exication wavelength set to 480 nm, and emission wavelength set to 560 nm. The R6G efflux was initiated by addition of 0.1% glucose, cell density in fluorometric cuvette was 10^6 cells/ml.

Assay [7] has as its system S. cerevisiae W303-1A and PGAL-PDR5, PGAL-SNQ2, PGAL-YOR1 strains. Description: Survival assay (CFU) of yeast treated with C12TPP or SkQ1. Type of assay: cell-based, Saccharomyces cerevisiae. Particulars: galactose-grown cells, 3 hours treatment. An excerpt:
FIG. 1A show the chemical structure of dodecyltriphenylphosphonium C12TPP and its plastoquinone derivative (SkQ1) used in this study.
In this example, we used W303-1A S. cerevisiae strains and its derivatives: AD1-8 with deletions of eight MDR genes [W303-1A, yor1::hisG, snq2::hisG, pdr5:shisG, pdr10::hisG, pdr11::hisG, ycf1::hisG, pdr3::hisG, pdr15::hisG][4]□, PGAL-PDR5 [W303-1A HIS3::PGAL-PDR5], PGAL-SNQ2 [W303-1A HIS3::PGAL-SNQ2], and […] [W303-1AHIS3::PGAL-YOR1](this study). Cells were grown in YPD medium (2% glucose, 1% bactopeptone, 1% yeast extract), or in YPGal (2% galactose, 1% bactopepton, 1% yeast extract). For genetic screening and maintenance of strains with conditionally expressed genes synthetic drop-out media YNB-Leu or YNB-His were used according to Sherman 2000 [5]. The growth rates were measured by increase of light scattering (λ=550 nm) in liquid yeast culture.
Exponentially grown cells were taken and treated with indicated amounts of C12TPP or SKQ1 for 3 hours. Then cell suspensions were plated on solid YPD medium and incubated for 48 hours, the number of formed colonies were counted. 100% refers to the number of colony forming units (CFU) in yeast suspension at the beginning of experiment.

Assay [8] addresses T2, AcrAB-To1C transporter (Escherichia coli, UniProt P31224).
T2 construct: endogenous in cells
Description: Ethidium bromide accumulation experiment. Type of assay: cell-based. Particulars: SkQ1 50 μM; ethidium bromide 20 μg/ml. As for the experimental part: For emulation of cell membrane leakage, bacterial cells were resuspended in deionized water. Ethidium bromide was added (20 μg/ml) and the change of fluorescence intensity was recorded on Fluorat-02-Panorama. For detecting of the accumulation of ethidium bromide, SkQ1 was added to a concentration of 50 μM.
To confirm whether AcrAB-To1C is the appropriate transporter, we used a test based on the measurement of ethidium bromide leakage through intact bacterial membranes. […] Bacterial cells were prepared and resuspended in PBS. For emulation of cell membrane leakage bacterial cells were resuspended in deionized water (Milli-Q water purification system, EMD Millipore, Billerica, Mass.). Ethidium bromide was added (20 μg/ml) and the change of fluorescence intensity was recorded on Fluorat-02-Panorama (Lumex Instruments, Russia) spectrofluorometer. For increasing the accumulation of ethidium bromide, SkQ1 was added to reach a concentration of 50 μM. […] We observed ethidium bromide accumulation when ethidium bromide concentration was 40-times less than MIC for E. coli cells that only can be the result of collateral action of SkQ1 and ethidium bromide as substrates for AcrAB-To1C transporter.

T2 sequence (P0AE06 25-397): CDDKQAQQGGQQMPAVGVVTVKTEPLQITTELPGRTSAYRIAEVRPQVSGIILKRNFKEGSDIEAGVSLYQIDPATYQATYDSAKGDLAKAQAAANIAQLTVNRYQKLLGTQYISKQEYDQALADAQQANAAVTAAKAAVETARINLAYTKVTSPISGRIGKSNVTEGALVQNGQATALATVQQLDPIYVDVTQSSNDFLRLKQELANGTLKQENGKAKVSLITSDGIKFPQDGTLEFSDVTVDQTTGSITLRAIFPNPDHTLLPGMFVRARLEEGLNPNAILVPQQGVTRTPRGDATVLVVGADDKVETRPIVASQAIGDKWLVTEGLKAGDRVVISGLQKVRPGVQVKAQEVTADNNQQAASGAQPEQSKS
T2 sequence (P02930 23-493, further chain): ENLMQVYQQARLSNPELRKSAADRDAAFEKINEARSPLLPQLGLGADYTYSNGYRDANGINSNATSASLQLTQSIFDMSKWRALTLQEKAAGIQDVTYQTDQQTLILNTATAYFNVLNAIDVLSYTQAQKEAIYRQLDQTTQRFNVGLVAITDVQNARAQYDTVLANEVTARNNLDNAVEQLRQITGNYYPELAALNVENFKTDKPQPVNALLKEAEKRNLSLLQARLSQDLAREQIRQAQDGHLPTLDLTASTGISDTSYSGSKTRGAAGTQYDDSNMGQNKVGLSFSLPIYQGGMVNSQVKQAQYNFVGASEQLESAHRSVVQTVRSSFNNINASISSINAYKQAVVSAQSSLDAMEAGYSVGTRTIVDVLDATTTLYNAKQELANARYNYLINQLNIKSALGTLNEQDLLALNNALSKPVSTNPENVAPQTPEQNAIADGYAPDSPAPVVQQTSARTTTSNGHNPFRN
T2 sequence (P31224 whole entry): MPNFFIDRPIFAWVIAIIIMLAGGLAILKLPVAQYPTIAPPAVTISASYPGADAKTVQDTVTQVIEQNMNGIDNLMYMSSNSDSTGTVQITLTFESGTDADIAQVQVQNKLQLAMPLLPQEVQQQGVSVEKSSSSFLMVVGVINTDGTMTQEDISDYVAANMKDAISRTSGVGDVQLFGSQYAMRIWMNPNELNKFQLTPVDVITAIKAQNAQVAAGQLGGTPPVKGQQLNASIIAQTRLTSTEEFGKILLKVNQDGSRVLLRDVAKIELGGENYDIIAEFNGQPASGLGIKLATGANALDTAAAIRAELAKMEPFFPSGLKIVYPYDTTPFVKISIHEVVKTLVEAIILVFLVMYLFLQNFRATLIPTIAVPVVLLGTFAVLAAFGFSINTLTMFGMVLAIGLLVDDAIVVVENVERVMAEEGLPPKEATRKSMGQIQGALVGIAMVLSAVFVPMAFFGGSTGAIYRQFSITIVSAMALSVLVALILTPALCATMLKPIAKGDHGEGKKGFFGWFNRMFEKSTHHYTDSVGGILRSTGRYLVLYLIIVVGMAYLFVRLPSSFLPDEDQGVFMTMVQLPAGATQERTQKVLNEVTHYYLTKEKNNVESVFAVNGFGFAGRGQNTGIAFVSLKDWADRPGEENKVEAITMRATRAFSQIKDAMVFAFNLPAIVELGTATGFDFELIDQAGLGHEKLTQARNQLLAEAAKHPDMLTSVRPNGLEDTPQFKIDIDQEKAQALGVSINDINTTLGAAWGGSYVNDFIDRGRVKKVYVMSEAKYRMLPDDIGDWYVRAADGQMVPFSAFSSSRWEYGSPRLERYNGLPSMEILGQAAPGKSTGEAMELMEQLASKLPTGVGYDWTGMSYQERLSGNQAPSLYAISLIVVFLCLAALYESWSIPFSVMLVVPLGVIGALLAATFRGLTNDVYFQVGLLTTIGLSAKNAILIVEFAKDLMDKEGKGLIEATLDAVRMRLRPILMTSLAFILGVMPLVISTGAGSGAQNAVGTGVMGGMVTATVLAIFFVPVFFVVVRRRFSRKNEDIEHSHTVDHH
T1 sequence (P33302 whole entry): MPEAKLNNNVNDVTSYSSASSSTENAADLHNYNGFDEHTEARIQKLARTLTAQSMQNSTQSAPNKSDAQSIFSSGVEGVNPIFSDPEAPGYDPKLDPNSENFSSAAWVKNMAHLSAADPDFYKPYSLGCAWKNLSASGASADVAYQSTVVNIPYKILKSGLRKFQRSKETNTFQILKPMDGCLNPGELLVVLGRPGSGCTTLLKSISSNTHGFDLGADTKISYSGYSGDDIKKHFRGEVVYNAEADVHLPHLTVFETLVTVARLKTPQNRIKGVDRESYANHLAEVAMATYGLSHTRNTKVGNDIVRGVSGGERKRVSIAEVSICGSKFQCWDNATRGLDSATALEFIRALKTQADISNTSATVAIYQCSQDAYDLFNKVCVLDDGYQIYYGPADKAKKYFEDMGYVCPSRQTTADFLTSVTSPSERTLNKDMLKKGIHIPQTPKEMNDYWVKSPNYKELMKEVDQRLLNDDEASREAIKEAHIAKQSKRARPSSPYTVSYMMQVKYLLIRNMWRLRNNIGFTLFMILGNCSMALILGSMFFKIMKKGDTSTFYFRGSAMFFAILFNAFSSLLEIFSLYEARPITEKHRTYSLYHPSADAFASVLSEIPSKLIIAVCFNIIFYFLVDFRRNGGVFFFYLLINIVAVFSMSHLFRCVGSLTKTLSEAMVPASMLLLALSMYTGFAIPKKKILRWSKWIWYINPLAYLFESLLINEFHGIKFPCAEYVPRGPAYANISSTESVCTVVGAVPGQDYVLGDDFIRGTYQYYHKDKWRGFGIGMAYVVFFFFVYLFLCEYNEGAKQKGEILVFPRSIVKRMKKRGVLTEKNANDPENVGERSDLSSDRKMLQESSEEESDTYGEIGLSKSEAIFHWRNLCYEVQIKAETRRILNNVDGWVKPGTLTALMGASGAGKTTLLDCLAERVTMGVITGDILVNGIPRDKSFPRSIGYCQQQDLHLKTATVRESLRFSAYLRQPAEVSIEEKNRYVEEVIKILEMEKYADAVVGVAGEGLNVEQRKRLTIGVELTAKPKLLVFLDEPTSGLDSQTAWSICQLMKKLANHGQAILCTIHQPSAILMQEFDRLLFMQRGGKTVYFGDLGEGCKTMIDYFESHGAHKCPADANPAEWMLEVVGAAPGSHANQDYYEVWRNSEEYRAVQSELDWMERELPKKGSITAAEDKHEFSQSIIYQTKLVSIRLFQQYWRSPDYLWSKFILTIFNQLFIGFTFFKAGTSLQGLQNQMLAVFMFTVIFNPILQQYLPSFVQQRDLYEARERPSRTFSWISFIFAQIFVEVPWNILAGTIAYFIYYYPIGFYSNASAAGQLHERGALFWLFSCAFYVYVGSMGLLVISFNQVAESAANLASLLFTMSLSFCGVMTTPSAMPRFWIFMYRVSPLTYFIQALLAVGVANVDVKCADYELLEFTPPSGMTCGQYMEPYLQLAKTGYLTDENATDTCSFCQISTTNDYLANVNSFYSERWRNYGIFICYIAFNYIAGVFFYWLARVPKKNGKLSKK

Regarding `CCCCCCCC[P+](c1ccccc1)(c1ccccc1)c1ccccc1` [C8TPP, octyltriphenylphosphonium], the “antimicrobial activity (growth inhibition)” value in assay [1] and in assay [2] (To1C-deletion mutant) was “have antimicrobial activity” throughout.
Consider `CC1=C(C)C(=O)C(CCCCCCCCCC[P+](c2ccccc2)(c2ccccc2)c2ccccc2)=CC1=O` [SkQ1, plastoquinonildecyltriphenylphosphonium], for which the “IMPOSSIBILITY OF GROWTH” value in assay [3] (5 μM), in assay [3] (30 μM), in assay [4] (5 μM), in assay [4] (30 μM), in assay [2] (5 μM) and in assay [2] (30 μM) was “YES” each time. Also, the MIC in assay [1] (Bacillus subtilis, LB media, 37° C., read-out: minimal inhibitory concentration (MIC)) came to 1 µM; in assay [5] (Escherichia coli, LB media, 37° C., read-out: minimal inhibitory concentration (MIC)) it was 50 µM. Also, the “antimicrobial activity (growth inhibition)” value in assay [1] is “strong antimicrobial activity”; in assay [5] (gram-negative) it was “mild antimicrobial activity”. In assay [5] (1 μM SkQ1), the “growth inhibition at 1 μM” value is given as “did not inhibit significantly growth”. Also, in assay [6], the “inhibition of glucose-induced R6G efflux from yeast cells” value was “much more efficient”. In addition, the “inhibition of glucose-induced R6G efflux from yeast cells pretreated with NaN3” value in assay [6] (cells pretreated with 10 mM NaN3) is “inhibits glucose-induced R6G efflux”. Further, the “resistance of cells (survival) under overexpression of MDR pump genes” value in assay [7] is “did not observe any effect of MDR overexpression”. The “ethidium bromide leakage through bacterial membranes (accumulation)” value in assay [8] is on record as “comparable to ethidium bromide leakage during osmotic shock”. The “substrate of AcrAB-To1C transporter” value in assay [8] is given as “is a substrate for AcrAB-To1C transporter”. Further, in assay [2] (Escherichia coli, read-out: minimal bactericidal concentration), the MBC is roughly 2 µM.
As for `CC1=C(C)C(=O)C(CCCCCCCCCC[P+](c2ccccc2)(c2ccccc2)c2ccccc2)=C(C)C1=O` [SkQ3], the “antimicrobial activity (growth inhibition)” value in assay [1] is recorded as “have antimicrobial activity”.
Still for that read-out and setting: in the case of `CC1=C(C)C(=O)C(CCCCC[P+](c2ccccc2)(c2ccccc2)c2ccccc2)=CC1=O` [SkQ5] it was “have antimicrobial activity”; in that of `CC1=CC(=O)C(CCCCCCCCCC[P+](c2ccccc2)(c2ccccc2)c2ccccc2)=CC1=O` [SkQT-para], “have antimicrobial activity”.
